According to ChEMBL document CHEMBL3352634 (Bioorg Med Chem Lett, 2014):
Residue numbers refer to the chain shown, from its start.

How the values were obtained:
[1] = test system: T1, Peroxisome proliferator-activated receptor alpha (Homo sapiens), Q07869 [T279A]; test: Agonist activity at wild-type human PPARalpha Thr279Ala mutant expressed in COS7 cells after 12 hrs by Dual-Glo luciferase assay relative to control; type: cell-based; conditions: COS-7
T1 sequence (whole entry): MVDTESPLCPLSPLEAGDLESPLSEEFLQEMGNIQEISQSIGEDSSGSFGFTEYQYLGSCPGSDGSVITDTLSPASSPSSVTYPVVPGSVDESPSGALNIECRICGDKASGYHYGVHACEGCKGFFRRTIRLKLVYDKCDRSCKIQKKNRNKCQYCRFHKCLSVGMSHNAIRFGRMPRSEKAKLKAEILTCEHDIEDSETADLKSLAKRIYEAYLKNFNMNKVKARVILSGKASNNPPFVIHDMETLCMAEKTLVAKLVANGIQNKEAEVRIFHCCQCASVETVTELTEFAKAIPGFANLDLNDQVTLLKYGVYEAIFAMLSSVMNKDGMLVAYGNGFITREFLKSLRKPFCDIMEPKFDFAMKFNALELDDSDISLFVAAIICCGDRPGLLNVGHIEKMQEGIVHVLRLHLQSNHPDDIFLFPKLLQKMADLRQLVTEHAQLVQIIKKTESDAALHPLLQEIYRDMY

[2] = biological target: T2, Peroxisome proliferator-activated receptor gamma (Homo sapiens, UniProt P37231); test: Agonist activity at human PPARgamma LBD expressed in COS7 cells after 12 hrs by Dual-Glo luciferase assay; type: cell-based, COS-7
T2 sequence (P37231 whole entry): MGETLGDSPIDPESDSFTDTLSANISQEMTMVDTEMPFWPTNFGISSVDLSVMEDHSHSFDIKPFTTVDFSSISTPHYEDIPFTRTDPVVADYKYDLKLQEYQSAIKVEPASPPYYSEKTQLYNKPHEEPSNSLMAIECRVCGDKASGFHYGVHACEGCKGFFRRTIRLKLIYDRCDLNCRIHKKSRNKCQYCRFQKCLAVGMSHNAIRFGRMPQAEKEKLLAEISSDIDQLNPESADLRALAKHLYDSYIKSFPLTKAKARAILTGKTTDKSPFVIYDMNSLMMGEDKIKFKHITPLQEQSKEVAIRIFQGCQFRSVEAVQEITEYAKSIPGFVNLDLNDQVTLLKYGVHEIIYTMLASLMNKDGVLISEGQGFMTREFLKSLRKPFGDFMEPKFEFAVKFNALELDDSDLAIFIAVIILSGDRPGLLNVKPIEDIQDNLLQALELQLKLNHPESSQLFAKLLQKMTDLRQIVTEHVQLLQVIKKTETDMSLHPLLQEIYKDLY

[3] = biological target: T3, Peroxisome proliferator-activated receptor gamma (Homo sapiens) (UniProt P37231); test: Agonist activity at human PPARgamma LBD expressed in COS7 cells after 12 hrs by Dual-Glo luciferase assay relative to pioglitazone; type: cell-based; conditions: COS-7
T3 sequence (whole entry): T2 sequence (P37231 whole entry)

[4] = biological target: Peroxisome proliferator-activated receptor alpha (Homo sapiens, UniProt Q07869, T279A); test: Agonist activity at wild-type human PPARalpha Thr279Ala mutant expressed in COS7 cells after 12 hrs by Dual-Glo luciferase assay; type: cell-based, COS-7
[5] = biological target: T4, Peroxisome proliferator-activated receptor alpha (Homo sapiens) (UniProt Q07869); test: Agonist activity at wild-type human PPARalpha LBD expressed in COS7 cells after 12 hrs by Dual-Glo luciferase assay relative to control; type: cell-based; conditions: COS-7
T4 sequence (whole entry): T1 sequence (whole entry) with A279T

[6] = biological target: T5, Peroxisome proliferator-activated receptor alpha (Homo sapiens, UniProt Q07869); test: Agonist activity at wild-type human PPARalpha LBD expressed in COS7 cells after 12 hrs by Dual-Glo luciferase assay; type: cell-based, COS-7
T5 sequence (Q07869 whole entry): T1 sequence (whole entry) with A279T

[7] = biological target: T4, Peroxisome proliferator-activated receptor alpha (Homo sapiens); test: Agonist activity at wild-type human PPARalpha LBD expressed in COS7 cells after 12 hrs by Dual-Glo luciferase assay relative to pirinixic acid; type: cell-based; conditions: COS-7
[8] = test system: COS-7; test: Selectivity ratio of EC50 for human PPARgamma LBD expressed in COS7 cells to EC50 for wild-type human PPARalpha LBD expressed in COS7 cells; type: cell-based

Row | %max [1] | EC50 [2] | %max [3] | EC50 [4] | %max [5] | EC50 [6] | %max [7] | Compound | Ratio EC50 [8]
1 | 83% | 490 nM | 158% | 240 nM | 127% | 720 nM | – | CCCCCCC(Sc1nc(Cl)cc(Nc2ccc(Cc3ccccc3)cc2)n1)C(=O)O (stereo not drawn) | –
2 | – | 12400 nM | 143% | – | 133% | 12000 nM | – | O=C(O)CSc1nc(Cl)cc(Nc2ccc(Nc3ccccc3)cc2)n1 | –
3 | – | – | 139% | – | – | 1000 nM | 146% | CCCCCCC(Sc1nc(Cl)cc(Nc2cccc(C)c2C)n1)C(=O)O (stereo not drawn) | –
4 | – | 1060 nM | 135% | – | 137% | 350 nM | – | CCCCC(Sc1nc(Cl)cc(Nc2ccc(Nc3ccccc3)cc2)n1)C(=O)O (stereo not drawn) | –
5 | – | – | 120% | – | – | – | – | CCCCC(Sc1nc(Cl)cc(Nc2cccc(C)c2C)n1)C(=O)O (stereo not drawn) | –
6 | – | – | 79% | – | – | – | – | Cc1cccc(Nc2cc(Cl)nc(SCC(=O)O)n2)c1C | –
7 | 105% | 1200 nM | 117% | 70 nM | 134% | 280 nM | – | CCCCCCC(Sc1nc(Cl)cc(Nc2ccc(C(=O)c3ccccc3)cc2)n1)C(=O)O (stereo not drawn) | –
8 | 115% | 690 nM | 126% | 100 nM | 95% | 70 nM | – | CCCCCCC(Sc1nc(Cl)cc(Nc2ccc(Nc3ccccc3)cc2)n1)C(=O)O (stereo not drawn) | > 10
9 | 87% | 2360 nM | 146% | 150 nM | 155% | 280 nM | – | CCCCCCC(Sc1nc(Cl)cc(Nc2ccc(Oc3ccccc3)cc2)n1)C(=O)O (stereo not drawn) | –
